In publication PMC11249626, “Fluorophore-Labeled Pyrrolones Targeting the Intracellular Allosteric Binding Site of the Chemokine Receptor CCR1” (ACS Pharmacology & Translational Science, 2024):

Biological target: T1, CCR9 (Homo sapiens, UniProt P51686)
T1 construct: host or cells: HEK293T, transient
T1 sequence (P51686 1-369): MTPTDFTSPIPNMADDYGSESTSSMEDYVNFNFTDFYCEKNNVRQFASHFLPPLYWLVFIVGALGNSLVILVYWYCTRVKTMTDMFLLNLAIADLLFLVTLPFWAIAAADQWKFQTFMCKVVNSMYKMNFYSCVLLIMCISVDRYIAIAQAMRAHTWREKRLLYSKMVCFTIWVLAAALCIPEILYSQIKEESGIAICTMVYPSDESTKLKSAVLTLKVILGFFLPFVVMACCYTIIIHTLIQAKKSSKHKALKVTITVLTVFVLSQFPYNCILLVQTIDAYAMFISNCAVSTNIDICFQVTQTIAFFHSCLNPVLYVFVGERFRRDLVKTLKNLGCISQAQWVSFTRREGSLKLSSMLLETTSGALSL
Test: Membrane-based NanoBRET saturation binding assay, CCR9_Nluc membranes
Settings: compared with CCR1
Procedure: Emission spectra of Nluc -labeled CCR1 (CCR1_Nluc) protein: The emission spectra of CCR1_Nluc has already been reported by Toy et al.1 For a confirmation of the reported data with new CCR1_Nluc membrane batches, furimazine (Promega, Mannheim, Germany 1:2000) was added to the membrane preparations (2 µg protein/well). […]
NanoBRET binding assays: Membrane-based NanoBRET saturation assay: For the establishment of our NanoBRET binding assay, we referred to recently published protocols. […]
Then, 20 µL of the membrane preparations diluted in assay buffer (3 µg total protein/well) were added and the plates were incubated for 90 min at 37 °C. Subsequently, 5 µL of a furimazine solution (Promega, Mannheim, Germany, final assay dilution: 1:5,000) were added to each well (final assay volume: 35 µL) before measuring luminescence with a CLARIOstar microplate reader using 620/10 nm and 475/30 nm emission filters after 5 min of incubation in the dark. Bioluminescence resonance energy transfer (BRET) was determined as the ratio of acceptor fluorescence and donor luminescence. […] Specific binding signals were calculated as a difference of total and non-specific binding. If required, netBRET values were calculated as the difference between total BRET values and the values obtained in the absence of a fluorescent ligand. […]

- Binding signal for CCR9: much weaker
SMILES: CN(C)c1ccc2c(-c3cc(C(=O)NCCOCCOCc4cn(CCCC(=O)C5=C(O)C(=O)N(c6ccc(Br)cc6F)C5C5CCCCC5)nn4)ccc3C(=O)[O-])c3ccc(=[N+](C)C)cc-3oc2c1 (stereo not shown) [compound 12]
